Results published in PMC12396409, “Screening and hit evaluation of a microbial metabolite library against the pathogenic Plasmodium falciparum and Toxoplasma gondii parasites” (International Journal for Parasitology: Drugs and Drug …, 2025).
Read-outs that look alike come from different tables or passages of the source. Where a SMILES comes first, the peptide text is derived from it. [ ]: non-standard residue; d: D form. d(aIle) = CC[C@H](C)[C@@H](N)C(=O)O; Hica(2S) = CC(C)C[C@H](O)C(=O)O; NMeL = CN[C@@H](CC(C)C)C(=O)O; dNMeL = CN[C@H](CC(C)C)C(=O)O; Hiv = CC(C)[C@H](O)C(=O)O

Tests used:
[1] = system: P. falciparum 3D7 parasites; assay: P. falciparum growth inhibition assay, 1-cycle (72 h treatment), SYBR DNA staining (library screen at 2 μg/mL and dose-response); assay type: cell-based, Plasmodium falciparum; conditions: P. falciparum, 72 h; for activity at 2 µg/mL: Plasmodium falciparum
[2] = system: P. falciparum 3D7 parasites; assay: P. falciparum growth inhibition assay, 2-cycle (120 h treatment), delayed-death screen and dose-response; assay type: cell-based, Plasmodium falciparum; conditions: P. falciparum, 120 h; for activity at 2 µg/mL: Plasmodium falciparum
[3] = system: T. gondii RH strain (RH-Tub-eYFP) tachyzoites; assay: microbe, parasite or virus in culture; assay type: cell-based, Toxoplasma gondii; conditions: T. gondii, 72 h; for percent parasite growth at 2 µg/mL: Toxoplasma gondii
[4] = parasite screen 2 μg/mL, % growth, replicate 1
[5] = parasite screen 2 μg/mL, % growth, replicate 2
[6] = 3D7, parasite screen 2 μg/mL, % growth, replicate 1, read-out: Pf_72h_%Growth_Rep1
[7] = 3D7, parasite screen 2 μg/mL, % growth, replicate 2, read-out: Pf_72h_%Growth_Rep2
[8] = 3D7, parasite screen 2 μg/mL, % growth, replicate 1, read-out: Pf_120h_%Growth_Rep1
[9] = 3D7, parasite screen 2 μg/mL, % growth, replicate 2, read-out: Pf_120h_%Growth_Rep2
[10] = parasite screen 2 μg/mL, % growth, replicate 1, read-out: Tg_72h_%Growth_Rep1
[11] = parasite screen 2 μg/mL, % growth, replicate 2, read-out: Tg_72h_%Growth_Rep2

Compound | Pf_72h_%Growth_Rep1 [1, 4] | Pf_72h_%Growth_Rep2 [1, 5] | Pf_120h_%Growth_Rep1 [2, 4] | Pf_120h_%Growth_Rep2 [2, 5] | Tg_72h_%Growth_Rep1 [3, 4] | Tg_72h_%Growth_Rep2 [3, 5] | further results
CC[C@H](C)[C@H]1NC(=O)[C@H](C(C)C)OC(=O)[C@H](CC(C)C)N(C)C(=O)[C@H](C(C)C)NC(=O)[C@H](C(C)C)OC(=O)[C@@H](CC(C)C)NC1=O [Sporidesmolide II] (cyclo([Hiv]V[NMeL][Hiv][d(aIle)][dL])) | 88.48% | 54.25% | 86.28% | 130.73% | 96.52% | 86.44% | –
CC(C)C[C@@H]1NC(=O)[C@H](C(C)C)NC(=O)[C@H](C(C)C)OC(=O)[C@@H](CC(C)C)N(C)C(=O)[C@@H](C(C)C)NC(=O)[C@H](C(C)C)OC1=O [Sporidesmolide I] (cyclo([Hiv]VL[Hiv][dV][dNMeL])) | 86.99% | 89.18% | 103.89% | 100.78% | 147.37% | 92.68% | –
CC[C@H](C)[C@H]1NC(=O)[C@H](C(C)C)OC(=O)[C@H](CC(C)C)N(C)C(=O)[C@H](C(C)C)NC(=O)[C@H](CC(C)C)OC(=O)[C@@H](CC(C)C)NC1=O [Sporidesmolide V] (cyclo([Hica(2S)]V[NMeL][Hiv][d(aIle)][dL])) | 8.13% | 0.54% | 158.27% | 82.66% | 84.27% | 95.04% | –
C[C@@H]1CC[C@H]2C(C)(C)[C@H](O)CC[C@]2(C)[C@@]12Cc1c(O)cc3c(c1O2)CNC3=O [Stachybotrylactam] | 26.98% | 44.84% | 94.74% | 25.01% | 105.88% | 102.71% | –
CC(=O)O[C@@H]1CC[C@@]2(C)[C@@H](CC[C@@H](C)[C@]23Cc2c(O)cc(CO)c(C=O)c2O3)C1(C)C [Stachybotrysin B] | 81.92% | 82.33% | 161.09% | 88.10% | 84.36% | 101.19% | –
CO[C@@H]1[C@H](N(C)C(=O)c2ccccc2)C[C@H]2O[C@]1(C)n1c3ccccc3c3c4c(c5c6ccccc6n2c5c31)C(=O)NC4=O [Stauprimide] | 1.11% | -9.03% | 32.82% | 11.28% | 9.90% | 20.75% | –
COc1cc(O)c2c(c1)C(=O)c1cc3c(c(O)c1C2=O)C(OC1OC(C)C(OC)C(O)C1OC)C(OC)C(C)(O)C3=O (stereo not drawn) [Steffimycin B] | 70.82% | 45.75% | 57.65% | 80.04% | 26.05% | 22.83% | –
COc1cc2c(c3oc4cccc(O)c4c(=O)c13)[C@@H]1C=CO[C@@H]1O2 [Sterigmatocystin] | 4.81% | 2.16% | 5.33% | 4.61% | 117.93% | 89.47% | –
COc1cc(C)c2c(c1C=O)Oc1c(c(C)c(O)c3c1C(O)OC3=O)OC2=O (stereo not drawn) [Stictic acid] | – | – | – | – | – | – | activity at 2 µg/mL [1, 6]: 81.8%; activity at 2 µg/mL [1, 7]: 80.1%; activity at 2 µg/mL [2, 8]: 88.2%; activity at 2 µg/mL [2, 9]: 87.2%; percent parasite growth at 2 µg/mL [3, 10]: 115%; percent parasite growth at 2 µg/mL [3, 11]: 87%
C=C/C(C)=C/[C@H](C)C(=O)C[C@H](O)CC1CC(=O)NC(=O)C1 [Streptimidone] | 21.69% | 38.20% | 72.22% | 22.01% | 3.03% | 2.79% | –
COC1=C(N)C(=O)c2nc(-c3nc(C(=O)O)c(C)c(-c4ccc(OC)c(OC)c4O)c3N)ccc2C1=O [Streptonigrin] | – | – | – | – | – | – | activity at 2 µg/mL ([1]; 3D7, 72 h, parasite screen 2 μg/mL, % growth, replicate 1, read-out: Pf_72h_%Growth_Rep1): 2.61%; activity at 2 µg/mL ([1]; 3D7, 72 h, parasite screen 2 μg/mL, % growth, replicate 2, read-out: Pf_72h_%Growth_Rep2): -8.29%; activity at 2 µg/mL ([2]; 3D7, 120 h, parasite screen 2 μg/mL, % growth, replicate 1, read-out: Pf_120h_%Growth_Rep1): 43.2%; activity at 2 µg/mL ([2]; 3D7, 120 h, parasite screen 2 μg/mL, % growth, replicate 2, read-out: Pf_120h_%Growth_Rep2): 6.18%; percent parasite growth at 2 µg/mL [3, 10]: 3.6%; percent parasite growth at 2 µg/mL [3, 11]: 2.59%
COc1ccc2c(c1)N(C(C)=O)[C@H]1[C@@H]3CO[C@H](C)[C@@H]4CN5CC[C@]21[C@@H]5C[C@H]34 [Strychnospermine] | 72.81% | 85.90% | 157.71% | 76.73% | 96.72% | 111.43% | –
CC1(C)[C@H](C(=O)O)N2C(=O)C[C@H]2S1(=O)=O [Sulbactam sodium] | – | – | – | – | – | – | activity at 2 µg/mL [1, 6]: 90.2%; activity at 2 µg/mL [1, 7]: 124%; activity at 2 µg/mL [2, 8]: 105%; activity at 2 µg/mL [2, 9]: 104%; percent parasite growth at 2 µg/mL [3, 10]: 134%; percent parasite growth at 2 µg/mL [3, 11]: 84.2%
COC(=O)c1cc(O)cc(OC)c1C(=O)c1c(O)cc(C)cc1O [Sulochrin] | – | – | – | – | – | – | activity at 2 µg/mL [1, 6]: 88.9%; activity at 2 µg/mL [1, 7]: 90.8%; activity at 2 µg/mL [2, 8]: 93.2%; activity at 2 µg/mL [2, 9]: 96.4%; percent parasite growth at 2 µg/mL [3, 10]: 153%; percent parasite growth at 2 µg/mL [3, 11]: 100%
CCCCC/C=C/C=C\C=C/[C@H](O)[C@H](C)[C@H](C/C=C/[C@@H]1OC(=O)C=C[C@@H]1O)OS(=O)(=O)[O-].[Na+] [Sultriecin] | 90.74% | 116.83% | 87.78% | 130.19% | 105.98% | 90.75% | –
CO[C@H]1/C=C\C=C(/C)C(=O)Nc2cc(O)cc(c2O)[C@H](OC)[C@@H](C)C[C@H](OC)[C@H](O)[C@@H](C)/C=C(\C)[C@@H]1OC(N)=O [TAN 420C] | 3.02% | -2.54% | 31.69% | 5.24% | 82.44% | 97.92% | –
CO[C@H]1[C@@H](OC)C[C@H](C)[C@@H](OC)c2cc(O)cc(c2O)NC(=O)/C(C)=C/C=C\[C@H](OC)[C@@H](OC(N)=O)/C(C)=C/[C@@H]1C [TAN 420E] | 3.51% | -0.34% | 36.47% | 7.03% | 60.21% | 64.79% | –
CCCCCCCCCCCCCCCC(=O)C1=C(O)C(CO)OC1=O (stereo not drawn) [TAN 1364B] | 72.25% | 85.83% | 149.02% | 76.93% | 101.38% | 92.62% | –
CC1=CC2C(O)CCCC2C(C)(C(O)=C2C(=O)CNC2=O)C1CCC(C)C(O)/C(C)=C/CC(O)/C=C/C(C)C(O)/C=C/CC(O)/C=C/CC(O)CC1CCCN1C(=N)N (stereo not drawn) [TPU-0037C] | – | – | – | – | – | – | Pf_72h_%Growth_Rep1 ([1]; screen at 2 μg/mL, replicate 1): 76.69%; Pf_72h_%Growth_Rep2 ([1]; screen at 2 μg/mL, replicate 2): 109.21%; Pf_120h_%Growth_Rep1 ([2]; screen at 2 μg/mL, replicate 1): 83.44%; Pf_120h_%Growth_Rep2 ([2]; screen at 2 μg/mL, replicate 2): 78.76%; Tg_72h_%Growth_Rep1 ([3]; screen at 2 μg/mL, replicate 1): 129.91%; Tg_72h_%Growth_Rep2 ([3]; screen at 2 μg/mL, replicate 2): 76.44%
